10 compounds from PubChem BioAssay (NCI) can be followed below.

SMILES strings stand for the structures.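 A five-concentration, 48-hour dose response in 96-well plates underlies each endpoint, interpolated linearly between surrounding concentrations. Here, GI50 denotes the concentration required for 50% inhibition of growth. TGI: concentration producing complete growth inhibition.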

What all share (experiment): NCI anticancer screen, dose series, 48 h
The test system of assay [1] is UACC-62 melanoma.
The test system of assay [2] is SF-268 CNS.
The subject of assay [3] is ACHN renal.
In assay [4] the test system is NCI-H226 lung.
Assay [5] deals with HOP-92 NSCLC.
The test system of assay [6] is A549 NSCLC.
Assay [7] deals with CAKI-1 renal.
Assay [8] concerns CCRF-CEM leukemia.
Assay [9] deals with SW-620 colon.
The test system of assay [10] is SF-295 CNS.

In the case of `O=C(O)c1ccccc1/C=N/N=C1c2ccccc2-c2ccccc21`, the TGI was above 100 µM in assay [1]; 77.1 µM in [2]; above 100 µM in assay [3]; 41.6 µM in assay [4]; above 100 µM in assay [5]; above 100 µM in assay [6]. The TGI in assay [7] was above 100 µM; in [8] it was 78.7 µM; in [9] it was above 100 µM; in [10] it was 61 µM.

As to `c1c[nH]c(CN2CCOCC2)n1`, the TGI in [1], in [2], in assay [3], in assay [4], in assay [5] and in assay [6] was above 100 µM in each case. In addition, the TGI in assay [7], in assay [8], in assay [9] and in assay [10] was above 100 µM in each case.

Take `CC(=O)c1ccc(O)c(CN(C2CCCCC2)C2CCCCC2)c1O`: the TGI in assay [1], in assay [2], in assay [3], in assay [4], in [5] and in [6] was above 100 µM throughout. The TGI was above 100 µM in assay [7], 1.88 µM in [8], above 100 µM in assay [9] and above 100 µM in [10].

For `O=S(=O)(CCCl)c1ccc(Cl)cc1`, the GI50 is 5.63 µM in assay [1]; 2.87 µM in [2]; 3.52 µM in assay [3]; 16 µM in [4]; 2.2 µM in assay [5]; 13 µM in [6]. Also, the GI50 in assay [7] is 2.9 µM; in assay [8], 2.95 µM; in assay [9], 2430 nM; in assay [10], 18.2 µM. Further, the TGI in assay [1] was 19.4 µM; in [2] it was 10.8 µM; in assay [3], 13.1 µM; in [4] it was above 100 µM; in assay [5] it was 6.57 µM; in assay [6], 45.6 µM. For the same compound, the TGI amounted to 13.2 µM in assay [7], 20.9 µM in [8], 11.6 µM in assay [9] and 47.5 µM in assay [10].

Consider `O=C1OCC2=C1C(c1ccccc1)c1cc3c(cc1N2CCO)OCO3` (stereo not drawn), for which the GI50 in assay [1] is 2.53 µM; in assay [2] it was 3.82 µM; in assay [3] it was 30.5 µM; in assay [4], above 50 µM; in [5] it was 13.9 µM; in [6] it was 14.7 µM. The GI50 was 3.87 µM in assay [7], 4.54 µM in assay [8], 2180 nM in assay [9] and 1.25 µM in assay [10]. Moreover, the TGI in assay [1], in [2], in assay [3], in assay [4], in assay [5] and in assay [6] was above 50 µM throughout. Also, the TGI in [7] is above 50 µM; in assay [8], above 50 µM; in assay [9] it was above 50 µM; in assay [10], 3.53 µM.

For `COc1cc(NCCCCCCCNC(C)C)c2nccc(C)c2c1`, the GI50 in assay [1] was 4.88 µM; in assay [2], 16.3 µM; in assay [3], 14.2 µM; in [4], 14.6 µM; in assay [5], 10.7 µM; in [6], 18.8 µM. For the same compound, the GI50 is 12.2 µM in assay [7], 12.1 µM in [8], 12600 nM in assay [9] and 14.1 µM in [10]. Besides, the TGI came out at 17.6 µM in assay [1]; 31.9 µM in [2]; 27.8 µM in assay [3]; 34.3 µM in assay [4]; 23.8 µM in [5]; 38.3 µM in assay [6]. Further, the TGI in assay [7] is 25.6 µM; in [8], 33 µM; in assay [9] it was 28.6 µM; in [10], 29.6 µM.

Turning to `COc1ccc2c(c1)/C(=C/c1cc(OC)c(OC)c(OC)c1)C(=O)N2`, the GI50 in assay [1] was 0.37 µM; in [2] it was 0.419 µM; in [3], 4.19 µM; in [4] it was above 30.9 µM; in assay [5], 1.43 µM; in assay [6], 0.603 µM. Further, the GI50 was 0.118 µM in assay [7], 0.253 µM in assay [8], 175 nM in assay [9] and 0.104 µM in assay [10]. Moreover, the TGI was above 100 µM in assay [1]; above 100 µM in [2]; above 100 µM in [3]; above 100 µM in assay [4]; above 33.9 µM in assay [5]; above 100 µM in assay [6]. Moreover, the results for the TGI in [9] and in assay [10] were above 100 µM and 0.602 µM, respectively.

In the case of `COC(=O)C1(C(=O)OC)CC(=O)c2cc3c(cc2-c2c(cc(OC)c(OC)c2OC)C1)OCO3`, the TGI in assay [1] was above 211 µM; in assay [2] it was above 211 µM; in assay [3], above 211 µM; in assay [4] it was above 211 µM; in assay [5], 167 µM; in assay [6] it was above 211 µM. In addition, the TGI in assay [7], in assay [8], in [9] and in assay [10] was above 211 µM each time.

In the case of `O=c1oc2ccccc2[n+]([O-])c1-c1ccccc1`, the TGI in assay [1], in assay [2], in [3], in [4], in assay [5] and in assay [6] was above 100 µM throughout. For the same compound, the TGI in assay [7], in assay [8], in assay [9] and in assay [10] was above 100 µM each time.

Take `CC1(C)CC2C(=O)c3ccccc3NC2c2ccccc21` (stereo not drawn): the TGI in assay [1], in [2], in [3], in assay [4], in assay [5] and in assay [6] was above 100 µM each time. Also, the TGI in assay [7] was above 100 µM; in [8] it was above 100 µM; in assay [9], above 100 µM; in assay [10], above 22.9 µM.
